The term Ki denotes the dissociation constant of the complex between target and ligand, obtained from inhibition or displacement. Higher therefore signals lower affinity.

We go through eleven compounds from US7482461B2, “Sulfonyl-3-heterocyclylindazole derivatives as 5-hydroxytryptamine-6 ligands” (Wyeth, priority 2006, dated 2009).

The target of the assay is human cloned 5-HT6 receptors (Homo sapiens, UniProt P50406).

Counter-ions that a name gives are not always drawn.

Chain of human cloned 5-HT6 receptors (P50406 whole entry): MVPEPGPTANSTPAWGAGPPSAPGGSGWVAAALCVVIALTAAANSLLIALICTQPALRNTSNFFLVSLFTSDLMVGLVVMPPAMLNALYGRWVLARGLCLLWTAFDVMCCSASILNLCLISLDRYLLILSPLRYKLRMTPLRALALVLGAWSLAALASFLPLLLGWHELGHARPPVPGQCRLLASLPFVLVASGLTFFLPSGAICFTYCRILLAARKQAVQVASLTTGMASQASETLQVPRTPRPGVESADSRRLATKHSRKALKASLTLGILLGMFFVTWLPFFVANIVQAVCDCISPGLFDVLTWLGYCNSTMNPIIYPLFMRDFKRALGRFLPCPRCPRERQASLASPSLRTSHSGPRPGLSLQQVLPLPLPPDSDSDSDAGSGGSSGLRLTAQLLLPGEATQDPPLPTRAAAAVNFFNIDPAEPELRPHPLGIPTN

On to `CN1CCC(c2n[nH]c3ccc(S(=O)(=O)c4cccc(F)c4)cc23)CC1` [Example 6, 5-[(3-fluorophenyl)sulfonyl]-3-(1-methylpiperidin-4-yl)-1H-indazole], for which the affinity corresponds to a Ki of 93 nM.
To `CN1CCC(c2n[nH]c3ccc(S(=O)(=O)c4ccc(F)cc4)cc23)CC1` [Example 8, 5-[(4-fluorophenyl)sulfonyl]-3-(1-methylpiperidin-4-yl)-1H-indazole] belongs 66 nM; to `Cc1cccc(S(=O)(=O)c2ccc3[nH]nc(C4CCN(C)CC4)c3c2)c1` [Example 9, 5-[(3-methylphenyl)sulfonyl]-3-(1-methylpiperidin-4-yl)-1H-indazole], 50 nM; to `CN1CCC(c2n[nH]c3ccc(S(=O)(=O)c4cccc5ccccc45)cc23)CC1` [Example 4, 3-(1-Methylpiperidin-4-yl)-5-(1-naphthylsulfonyl)-1H-indazole hydrochloride], 3.8 nM.
The compound `CN1CCC(c2n[nH]c3ccc(S(=O)(=O)c4ccc5ccccc5c4)cc23)CC1` [Example 13, 3-(1-methylpiperidin-4-yl)-5-(2-naphthylsulfonyl)-1H-indazole] came in with a Ki of 9.6 nM.
Consider `COc1ccc(S(=O)(=O)c2ccc3[nH]nc(C4CCN(C)CC4)c3c2)cc1` [Example 14], for which the Ki came to 123 nM.
As for `CC(C)c1ccc(S(=O)(=O)c2ccc3[nH]nc(C4CCN(C)CC4)c3c2)cc1` [Example 12, 5-[4-(isopropylphenyl)sulfonyl]-3-(1-methylpiperidin-4-yl)-1H-indazole], the figure is 14 nM.
To `CN1CCC(c2n[nH]c3ccc(S(=O)(=O)c4ccc(C(F)(F)F)cc4)cc23)CC1` [Example 10, 3-(1-methylpiperidin-4-yl)-5-{[4-(trifluoromethyl)phenyl]sulfonyl}-1H-indazole] belongs 46 nM.
Regarding `CN1CCC(c2n[nH]c3ccc(S(=O)(=O)c4ccc(OC(F)(F)F)cc4)cc23)CC1` [Example 11, 3-(1-methylpiperidin-4-yl)-5-{[4-(trifluoromethoxy)phenyl]sulfonyl}-1H-indazole], the affinity, expressed as Ki, was 48 nM.
To `CN1CCC(c2n[nH]c3ccc(S(=O)(=O)c4cccc(Cl)c4)cc23)CC1` [Example 7, 5-[(3-chlorophenyl)sulfonyl]-3-(1-methylpiperidin-4-yl)-1H-indazole] belongs 19 nM; to `CN1CCC(c2n[nH]c3ccc(S(=O)(=O)c4ccccc4)cc23)CC1` [Example 5, 3-(1-methylpiperidin-4-yl)-5-(phenylsulfonyl)-1H-indazole], 55 nM.
